US5104891A, “Cycloheptimidazolone compounds as angiotensin II antagonists for control of hypertension” (G. D. Searle & Co., priority 1989, dated 1992)

Columns and labels:
[1] = biological target: angiotensin II receptor (rat uterine membranes); assay: Angiotensin II binding assay (125I-angiotensin II, rat uterine membranes)
Procedure: Other chemicals were obtained from Sigma Chemical Co.
Rat uterine membranes were prepared from fresh tissue. All procedures were carried out at 4° C. Uteri were stripped of fat and homogenized using a Polytron for 25 sec in 20 volumes of ice-cold Dulbecco's phosphate-buffered saline pH 7.5 (Gibso Labs) containing 5 mM EDTA. The homogenate was centrifuged at 1500× g for 20 min., and the supernatant was recentrifuged at 100,000× g for 60 min. The pellet was resuspended in buffer consisting of 2 mM EDTA and 50 mM Tris-HCl, pH 7.5 to a final protein concentration of 4 mg/ml.
The reaction was initiated by the addition of 50 μg of membrane protein and the mixture was incubated at 25° C. for 30 min. The incubation was terminated with ice-cold 50 mM Tris-HCl; pH 7.5 and the mixture was filtered to separate membrane-bound labelled peptide from the free ligand. The incubation tube and filter were washed with ice-cold buffer. Filters were assayed for radioactivity in a Micromedic gamma counter. Nonspecific binding was defined as binding in the presence of 10 μM of unlabelled AII. Specific binding was calculated as total binding minus nonspecific binding. Binding data was analyzed by a nonlinear least-squares curve fitting program.

[2] = biological target: T1, angiotensin II (AII) contraction of rabbit aortic rings (Oryctolagus cuniculus, UniProt P34976); assay: In vitro myotropic screening assay for AII antagonists in rabbit aortic rings; type: cell-based; conditions: pA2 determined according to Schild
T1 construct: The thoracic aorta was removed, cleaned of adherent fat and connective tissue and then cut into 3-mm ring segments; from tissue; host or cells: rabbit thoracic aorta rings, endothelium removed
T1 sequence (P34976 1-359): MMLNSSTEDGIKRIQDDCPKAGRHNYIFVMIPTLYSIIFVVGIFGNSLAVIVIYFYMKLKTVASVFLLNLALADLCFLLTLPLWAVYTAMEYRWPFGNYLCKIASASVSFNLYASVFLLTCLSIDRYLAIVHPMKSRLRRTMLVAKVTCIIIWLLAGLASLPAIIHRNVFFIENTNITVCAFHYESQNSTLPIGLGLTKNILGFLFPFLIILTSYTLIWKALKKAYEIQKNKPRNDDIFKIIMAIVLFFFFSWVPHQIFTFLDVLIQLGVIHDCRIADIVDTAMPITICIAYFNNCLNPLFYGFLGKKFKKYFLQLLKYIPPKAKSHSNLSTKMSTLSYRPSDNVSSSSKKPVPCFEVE
Procedure: The compounds of the invention were tested for agonist and antagonist activity in rabbit aortic rings. Male New Zealand white rabbits (2-2.5 kg) were sacrificed using an overdose of pentobarbital and exsanguinated via the carotid arteries. The thoracic aorta was removed, cleaned of adherent fat and connective tissue and then cut into 3-mm ring segments. The endothelium was removed from the rings by gently sliding a rolled-up piece of filter paper into the vessel lumen. The rings were then mounted in a water-jacketed tissue bath, maintained at 37° C., between a moveable and a fixed stainless steel wire, with the moveable end attached to an FT03 Grass transducer coupled to a Model 7D Grass Polygraph for recording isometric force responses. […] The preparations were equilibrated for one hour before approximately one gram of passive tension was placed on the rings. For the agonist assay, the rings were exposed to increasing concentrations of the test compound, at 30 minute intervals, during which time the tissue was washed three times with 20 ml of fresh Krebs solution. For the measurement of antagonistic activity, paired rings from the same rabbits were used; one was exposed to increasing concentrations of AII (at 30 minute intervals), and a second ring was exposed to increasing concentrations of AII in the presence of the test compound which was added five minutes prior to the addition of AII. The concentration response curves for AII in the presence of the antagonist were evaluated in terms of the percent of the maximal contraction of the control ring exposed only to AII. pD2 values for AII were calculated from the AII concentration response curves while pA2s were determined according to Schild.

angiotensin II receptors = conditions: background; cited from earlier work
AII pressor response [3] = assay: In vivo pressor screening assay for AII antagonists, intravenous administration; set-up: species or system rat (male Sprague Dawley); conditions: rat
Procedure: (§1) Male Sprague Dawley rats weighing […] were anesthetized with Inactin (100 mg/kg), a catheter was inserted into the trachea and the carotid artery and the jugular vein were cannulated. Arterial pressure was measured from the carotid artery cannula and continuously recorded (Gould, Cleveland, OH). The jugular vein cannula was used for injections of angiotensin II (AII), mecamylamine, atropine and the test compound. The animal was allowed to equilibrate for 30 minutes. Mecamylamine (3 mg/kg, 0.3 mg/kg) and atropine (400 μg/kg, 0.3 ml/kg) were then given iv to produce ganglion blockage. These compounds were administered every 90 minutes throughout the screening procedure. Angiotensin II was given in bolus doses ([…] in saline with 0.5% bovine serum albumin, 0.1 ml/kg) every 10 minutes consecutively three times or until the increase in arterial pressure produced was within 3 mm Hg for two consecutive injections. The last two AII injections are averaged and are referred to as the control response to AII. […] AII injections were then given 1, 5, 10, 20, 30, 45, 60, 75, 90, and 120 minutes after administration of the test compound and the response of arterial pressure monitored. […]

angiotensin II = conditions: literature; cited from earlier work
AII pressor response [4] = assay: In vivo AII pressor assay, intraduodenal administration; set-up: species or system rat (male Sprague Dawley); conditions: rat, @ 100 mg
Procedure: as §1, with “injections.” for “injections. The last two AII injections are averaged and are referred to as the control response to AII.”
Compounds were tested for absorption from the gastrointestinal tract following intraduodenal administration. […] The response to AII was tested at the same time points following administration of the test compound except that the 1 minute reading was eliminated. […]

[5] = IC50, 125I-AII, rat uterine membranes, 25° C., 30 min

Molecule	IC50 [1, 5] [µM]	IC50 ([1]; meaning not explained) [µM]	Kb [2] [µM]	also measured
angiotensin II: octapeptide, the primary active species of the renin-angiotensin system (DRVYIHPF; Angiotensin-2; UniProt P01019 25-32, looked up)	–	–	–	vasoconstrictor potency (angiotensin II receptors): very potent vasoconstrictor agent
CCCCc1nc2cc(C(=O)O)c(=O)c(C(=O)O)cc2n1Cc1ccc(-c2ccccc2C(=O)O)cc1 [Example 2, 4'-[[5,7-dicarboxy-2-butyl-6(1H)-cycloheptimidazolon-1-yl]methyl]-[1,1'-biphenyl]-2-carboxylic acid]	0.5	0.14	0.251	Antagonism of the AII pressor response, maximal inhibition, I.V. (AII pressor response [3]; @ 10 mg): 100%
CCCCc1nc(Cl)c(CC(=O)O)n1Cc1ccccc1Cl [2-n-butyl-4-chloro-1-(2-chlorobenzyl) imidozole-s-acetic acid]	–	–	–	angiotensin II antagonist activity (angiotensin II): specific competitive angiotensin II antagonist activity
CNCC(=O)N[C@@H](CCCN=C(N)N)C(=O)N[C@H](C(=O)N[C@@H](Cc1ccc(O)cc1)C(=O)N[C@H](C(=O)N[C@@H](Cc1cnc[nH]1)C(=O)N1CCC[C@H]1C(=O)N[C@@H](C)C(=O)O)C(C)C)C(C)C [Saralasin]	–	–	–	residual agonist activity (angiotensin II receptors): significant residual agonist activity
CCCCc1nc2cc(C)c(=O)c(C)cc2n1Cc1ccc(-c2ccccc2C(=O)O)cc1 [Example 1, 4'-[[5,7-dimethyl-2-butyl-6(1H)-cycloheptimidazolon-1-yl]methyl]-[1,1'-biphenyl]-2-carboxylic acid]	0.8	0.25	1	Antagonism of the AII pressor response, maximal inhibition, I.V. (AII pressor response [3]; @ 30 mg): 72%; Antagonism of the AII pressor response, maximal inhibition, ID (AII pressor response [4]): 72%
CCCCc1nc2ccc(=O)ccc2n1Cc1ccc(-c2ccccc2C(=O)O)cc1 [Example 3, 4'-[[2-butyl-6(1H)-cycloheptimidazolon-1-yl]methyl]-[1,1'-biphenyl]-2-carboxylic acid]	1.4	0.024	1.26	–
4'-[[5(7)-benzyl-7(5)hydrido-2-butyl-6(1H)-cycloheptimidazolon-1-yl]methyl]-[1,1'-biphenyl]-2-carboxylic acid [Example 14]	2.3	0.108	–	pA2 [2]: 6.1
CCCCc1nc(Cl)c(CC(=O)O)n1Cc1ccccc1[N+](=O)[O-] [2-butyl-4-chloro-1-(2-nitrobenzyl)imiadzole-5-acetic acid]	–	–	–	angiotensin II antagonist activity (angiotensin II): specific competitive angiotensin II antagonist activity
angiotensin III: heptapeptide {[des Asp^1 ]angiotensin II}	–	–	–	vasoconstrictor potency (angiotensin II receptors): less potent as a vasoconstrictor than angiotensin II

Now from value to molecule, other results behind:

IC50 [1, 5] [µM]	IC50 ([1]; meaning not explained) [µM]	Kb [2] [µM]	Molecule	also measured
0.8	0.117	0.316	CCCCc1nc2cc(-c3ccccc3)c(=O)c(-c3ccccc3)cc2n1Cc1ccc(-c2ccccc2C(=O)O)cc1 [Example 7, 4'-[[5,7-diphenyl-2-butyl-6(1H)-cycloheptimidazolon-1-yl]methyl]-[1,1'-biphenyl]-2-carboxylic acid]	–
1.9	0.038	–	CCCc1nc2ccc(=O)c(Cc3ccccc3)cc2n1Cc1ccc(-c2ccccc2C(=O)O)cc1 [Example 13, 4'-[[5(7)-hydrido-7(5)benzyl-2-propyl-6(1H)-cycloheptimidazolon-1-yl]methyl]-[1,1'-biphenyl]-2-carboxylic acid]	pA2 [2]: 5.5
1.4	0.349	1.26	CCCc1nc2ccc(=O)ccc2n1Cc1ccc(-c2ccccc2C(=O)O)cc1 [Example 5, 4'-[[2-propyl-6(1H)-cycloheptimidazolon-1-yl]methyl]-[1,1'-biphenyl]-2-carboxylic acid]	–
2	0.161	–	CCCCc1nc2cc(C(C)C)c(=O)c(-c3ccccc3)cc2n1Cc1ccc(-c2ccccc2C(=O)O)cc1 [Example 10, 4'-[[5(7)-isopropyl-7(5)phenyl-2-butyl-6(1H)-cycloheptimidazolon-1-yl]methyl]-[1,1'-biphenyl]-2-carboxylic acid]	pA2 [2]: 5.6
2.3	0.55	1	CCCc1nc2cc(C(=O)O)c(=O)c(C(=O)O)cc2n1Cc1ccc(-c2ccccc2C(=O)O)cc1 [Example 4, 4'-[[5,7-dicarboxy-2-propyl-6(1H)-cycloheptimidazolon-1-yl]methyl]-[1,1'-biphenyl]-2-carboxylic acid]	–
2.5	0.23	7.94	CCCCCc1nc2cc(C)c(=O)c(C)cc2n1Cc1ccc(-c2ccccc2C(=O)O)cc1 [Example 6, 4'-[[5,7-dimethyl-2-pentyl-6(1H)-cycloheptimidazolon-1-yl]methyl]-[1,1'-biphenyl]-2-carboxylic acid]	–
0.71	0.324	–	CCCCCc1nc2cc(C)c(=O)c(C)cc2n1Cc1ccc(-c2ccccc2-c2nn[nH]n2)cc1 [Example 20, 1-{2'-[(tetrazol-5-yl)-biphenyl-4-yl]methyl}-2-pentyl-5,7-dimethyl-cycloheptimidazolone]	–
4	0.39	–	CCCCc1nc2cc(C(=O)O)c(=O)c(COC)cc2n1Cc1ccc(-c2ccccc2C(=O)O)cc1 [Example 12, 4'-[[5(7)-carboxy-7(5)methoxymethyl-2-butyl-6(1H)-cycloheptimidazolon-1-yl]methyl]-[1,1'-biphenyl]-2-carboxylic acid]	pA2 [2]: 6.8
7.1	–	–	CCCCc1nc2cc(O)c(=O)c(Cl)cc2n1Cc1ccc(-c2ccccc2C(=O)O)cc1 [Example 11, 4'-[[5(7)-hydroxy-7(5)chloro-2-butyl-6(1H)-cycloheptimidazolon-1-yl]methyl]-[1,1'-biphenyl]-2-carboxylic acid]	pA2 [2]: 6.4
